Drawing on PubChem BioAssay AID330 (DTP/NCI, 2004), this text covers T/C for 25 compounds.

Inconclusive results and toxic doses are left out.

For this experiment, the system named is P388 leukemia ip, CD2F1 mice, survival T/C. Kind of experiment: NCI In Vivo Anticancer Drug Screen. Data for tumor model P388 Leukemia (intraperitoneal) in CD2F1 (CDF1) mice. The conditions noted are these: endpoint: median survival time, higher = longer survival. Put shortly:
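Mice carrying the transplanted tumor received test compound or vehicle. Survival was recorded in each group, and the value is the treated-group measurement divided by that of the vehicle-treated control group.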

Setting [1] is: dose: 50.0 mg/kg/injection, schedule: Q01DX009 (ip), vehicle: saline.
Where [2] appears, read: dose: 100.0 mg/kg/injection, schedule: Q01DX009 (ip), vehicle: saline.
Where [3] appears, read: dose: 50.0 mg/kg/injection, schedule: Q01DX009 (ip), vehicle: Klucel (hydroxypropylcellulose) (HPC).
The mark [4] stands for this setting: dose: 100.0 mg/kg/injection, schedule: Q01DX009 (ip), vehicle: Klucel (hydroxypropylcellulose) (HPC).
Where [5] appears, read: dose: 200.0 mg/kg/injection, schedule: Q01DX009 (ip), vehicle: Klucel (hydroxypropylcellulose) (HPC).
Setting [6] is: dose: 60.0 mg/kg/injection, schedule: Q01DX005 (ip), vehicle: Klucel (hydroxypropylcellulose) (HPC).
[7] abbreviates: dose: 120.0 mg/kg/injection, schedule: Q01DX005 (ip), vehicle: Klucel (hydroxypropylcellulose) (HPC).
Setting [8] is: dose: 240.0 mg/kg/injection, schedule: Q01DX005 (ip), vehicle: Klucel (hydroxypropylcellulose) (HPC).
Where [9] appears, read: dose: 50.0 mg/kg/injection, schedule: Q01DX005 (ip), vehicle: saline with Tween-80.
[10] abbreviates: dose: 100.0 mg/kg/injection, schedule: Q01DX005 (ip), vehicle: saline with Tween-80.
The mark [11] stands for this setting: dose: 100.0 mg/kg/injection, schedule: Q04DX003 (ip), vehicle: saline with Tween-80.
[12] abbreviates: dose: 400.0 mg/kg/injection, schedule: Q04DX003 (ip), vehicle: saline with Tween-80.
The mark [13] stands for this setting: dose: 100.0 mg/kg/injection, schedule: Q04DX002 (ip), vehicle: Klucel (hydroxypropylcellulose) (HPC).
The mark [14] stands for this setting: dose: 200.0 mg/kg/injection, schedule: Q04DX002 (ip), vehicle: Klucel (hydroxypropylcellulose) (HPC).
[15] abbreviates: dose: 400.0 mg/kg/injection, schedule: Q04DX002 (ip), vehicle: Klucel (hydroxypropylcellulose) (HPC).
[16] abbreviates: dose: 6.25 mg/kg/injection, schedule: Q01DX009 (ip), vehicle: saline.
[17] abbreviates: dose: 12.5 mg/kg/injection, schedule: Q01DX009 (ip), vehicle: saline.
Where [18] appears, read: dose: 25.0 mg/kg/injection, schedule: Q01DX009 (ip), vehicle: saline.

For `O=C(O)CSc1ncccc1Nc1ccc([N+](=O)[O-])cn1`, the T/C reads like this: under setting [1], 102 % of control; under setting [2], 86 % of control.

For the compound `COc1cc2c(cc1O)C(=O)CCC2`, the T/C reads like this: under setting [3], 102 % of control; under setting [4], 103 % of control; under setting [5], 104 % of control.

Turning to `CC12c3ccccc3CCN1C(c1ccccc1)=NN2c1ccccc1` (centres undefined), the T/C (dose: 100.0 mg/kg/injection, schedule: Q01DX001 (ip), vehicle: saline with Tween-80) is 105 % of control; the T/C (dose: 200.0 mg/kg/injection, schedule: Q01DX001 (ip), vehicle: saline with Tween-80) is 103 % of control; the T/C (dose: 400.0 mg/kg/injection, schedule: Q01DX001 (ip), vehicle: saline with Tween-80) is 102 % of control.

Regarding `CCOc1c(N=Nc2ccccc2Cl)c(C)nn1C(=S)S`, the T/C is, setting by setting: (dose: 15.0 mg/kg/injection, schedule: Q01DX005 (ip), vehicle: Klucel + Tween-80) 95 % of control; (dose: 30.0 mg/kg/injection, schedule: Q01DX005 (ip), vehicle: Klucel + Tween-80) 100 % of control; (dose: 60.0 mg/kg/injection, schedule: Q01DX005 (ip), vehicle: Klucel + Tween-80) 96 % of control.

As for `Clc1ccc(-c2cc(-c3cc(-c4ccc(Cl)c(Cl)c4)n[nH]3)[nH]n2)cc1Cl`, the T/C by setting is: under setting [6], 97 % of control; under setting [7], 86 % of control; under setting [8], 96 % of control.

For `CCCCC(CCCC)=NO`, the T/C is, setting by setting: under setting [9], 108 % of control; under setting [10], 100 % of control.

As to `O=c1oc(-c2cccc(I)c2)ns1`, the T/C is, setting by setting: under setting [4], 111 % of control; under setting [5], 114 % of control.

As for `COC(=O)Nc1ccc2c(c1)Cc1cc(NC(=O)OC)ccc1-2`, the T/C is, setting by setting: under setting [9], 94 % of control; under setting [10], 92 % of control; (dose: 200.0 mg/kg/injection, schedule: Q01DX005 (ip), vehicle: saline with Tween-80) 90 % of control.

As for `Cn1nnnc1NN(c1nnnn1C)C1C=CCC=C1`, the T/C is 99 % of control under setting [11]; 97 % of control (dose: 200.0 mg/kg/injection, schedule: Q04DX003 (ip), vehicle: saline with Tween-80); 98 % of control under setting [12].

As to `O=C1SC(Nc2ccc([N+](=O)[O-])cc2)/C(=N\N=C2/C(Nc3ccc([N+](=O)[O-])cc3)SC(=O)N2Cc2ccccc2)N1Cc1ccccc1` (centres undefined), the T/C under setting [13] was 95 % of control, the T/C under setting [14] is 95 % of control and the T/C under setting [15] is 97 % of control.

As to `CCOC(=O)C(C[N+](=O)[O-])(NC(=O)c1ccccc1)C(=O)OCC`, the T/C (dose: 60.0 mg/kg/injection, schedule: Q01DX005 (ip), vehicle: saline) is 104 % of control; the T/C (dose: 120.0 mg/kg/injection, schedule: Q01DX005 (ip), vehicle: saline) was 105 % of control; the T/C (dose: 240.0 mg/kg/injection, schedule: Q01DX005 (ip), vehicle: saline) is 99 % of control.

As for `CCN=C(Cl)N(C)c1ccccc1`, the T/C runs as follows: under setting [3], 100 % of control; under setting [4], 95 % of control.

In the case of `CCc1ccccc1NC(=O)C(C#N)C1=C(Cl)C(=O)c2ccccc2C1=O` (centres undefined), the T/C runs as follows: (dose: 60.0 mg/kg/injection, schedule: Q01DX005 (ip), vehicle: saline with Tween-80) 113 % of control; (dose: 120.0 mg/kg/injection, schedule: Q01DX005 (ip), vehicle: saline with Tween-80) 106 % of control.

Regarding `COc1ccc(C2c3cc4c(cc3OC(O)C2C)OCO4)c(OC)c1` (centres undefined), the T/C was 97 % of control (dose: 100.0 mg/kg/injection, schedule: Q04DX002 (ip), vehicle: saline with Tween-80); 97 % of control (dose: 200.0 mg/kg/injection, schedule: Q04DX002 (ip), vehicle: saline with Tween-80); 95 % of control (dose: 400.0 mg/kg/injection, schedule: Q04DX002 (ip), vehicle: saline with Tween-80).

Turning to `CN(C)c1cc(O)c(-n2c3cc(=O)c(N(C)C)cc-3nc3ccccc32)cc1O`, the T/C (dose: 3.12 mg/kg/injection, schedule: Q01DX009 (ip), vehicle: saline) is 100 % of control; the T/C (dose: 6.25 mg/kg/injection, schedule: Q01DX009 (ip), vehicle: saline with Tween-80) is 93 % of control; the T/C under setting [16] was 96 % of control; the T/C (dose: 12.5 mg/kg/injection, schedule: Q01DX009 (ip), vehicle: saline with Tween-80) was 90 % of control; the T/C under setting [17] is 100 % of control; the T/C (dose: 25.0 mg/kg/injection, schedule: Q01DX009 (ip), vehicle: saline with Tween-80) is 91 % of control. The T/C was 115 % of control under setting [18], 120 % of control under setting [1] and 90 % of control under setting [2].

With `Cc1csc(=S)n1C`, the T/C was 92 % of control under setting [1] and 95 % of control under setting [2].

On to `Brc1ccc(Oc2ccc(Br)cc2)cc1`, for which the T/C by setting is: under setting [3], 100 % of control; under setting [4], 98 % of control; under setting [5], 92 % of control.

For the compound `CCCCCCCCCCCCCCCCCC[N+]1(CC)CCCC1`, the T/C is, setting by setting: under setting [16], 97 % of control; under setting [17], 97 % of control; under setting [18], 97 % of control.

Regarding `CC(=O)Oc1cc2c(c3ccccc13)OC(=O)CCCCCCCCCCC2=O`, the T/C runs as follows: under setting [13], 93 % of control; under setting [14], 118 % of control; under setting [15], 107 % of control.

In the case of `CCN(CC)Cc1cc(Nc2ccnc3cc(N(C)C)ccc23)ccc1O`, the T/C was 103 % of control under setting [16], 115 % of control under setting [17] and 115 % of control under setting [18].

Consider `Cc1cc(N(CCCl)CCCl)ccc1C=Nc1ccc(F)cc1`, for which the T/C reads like this: under setting [11], 104 % of control; (dose: 200.0 mg/kg/injection, schedule: Q01DX009 (ip), vehicle: saline with Tween-80) 155 % of control; (dose: 264.0 mg/kg/injection, schedule: Q04DX003 (ip), vehicle: saline with Tween-80) 109 % of control; (dose: 400.0 mg/kg/injection, schedule: Q01DX009 (ip), vehicle: saline with Tween-80) 165 % of control; under setting [12], 150 % of control; (dose: 600.0 mg/kg/injection, schedule: Q04DX003 (ip), vehicle: saline with Tween-80) 168 % of control.

For the compound `Cc1cc2c3c([nH]c2cc1[N+](=O)[O-])CCCC3=O`, the T/C was 88 % of control (dose: 25.0 mg/kg/injection, schedule: Q01DX005 (ip), vehicle: Klucel (hydroxypropylcellulose) (HPC)); 88 % of control (dose: 50.0 mg/kg/injection, schedule: Q01DX005 (ip), vehicle: Klucel (hydroxypropylcellulose) (HPC)); 86 % of control (dose: 100.0 mg/kg/injection, schedule: Q01DX005 (ip), vehicle: Klucel (hydroxypropylcellulose) (HPC)); 90 % of control (dose: 200.0 mg/kg/injection, schedule: Q01DX005 (ip), vehicle: Klucel (hydroxypropylcellulose) (HPC)).

Regarding `CC(C)CC1COC(=O)C(CC(C)C)NC(=O)COCC(=O)NC(CC(C)C)C(=O)OCC(CC(C)C)NC(=O)COCC(=O)N1` (centres undefined), the T/C under setting [6] is 99 % of control, the T/C under setting [7] is 100 % of control and the T/C under setting [8] is 101 % of control.

As to `CCCCCCCCCCCCn1cc[n+](CC(=O)N(O)Cc2ccccc2)c1C`, the T/C by setting is: (dose: 1.56 mg/kg/injection, schedule: Q01DX005 (ip), vehicle: saline with Tween-80) 93 % of control; (dose: 3.12 mg/kg/injection, schedule: Q01DX005 (ip), vehicle: saline with Tween-80) 90 % of control; (dose: 6.25 mg/kg/injection, schedule: Q01DX005 (ip), vehicle: saline with Tween-80) 86 % of control.

As for `O=C(c1ccccc1)C(c1ccccc1)n1nccc1-c1ccccc1` (centres undefined), the T/C was 105 % of control under setting [3], 105 % of control under setting [4] and 99 % of control under setting [5].
